Assay results reported in patent publication US10682323B2, “Therapeutic agent for glaucoma” (TOA EIYO LTD., priority 2016, dated 2020).

Legend:
[1] = as disclosed in Patent Literature 1 (WO 2015/095515 A); cited from earlier work
[2] = molecular target: T1, human sGC (Homo sapiens, UniProt Q02153); assay: Measurement of sGC activating effect in CHO-K1 cells stably expressing human sGC and mouse CNGA2; format: cell-based; conditions: CHO-K1 cells expressing human sGC and mouse CNGA2, Fura2 calcium readout, 10 μmol/L ODQ in assay buffer
T1 construct: expressed in transfected cells; host or cells: CHO-K1 cells (Chinese hamster ovary), stably co-expressing mouse CNGA2 as the calcium read-out channel
T1 sequence (Q02153 1-619): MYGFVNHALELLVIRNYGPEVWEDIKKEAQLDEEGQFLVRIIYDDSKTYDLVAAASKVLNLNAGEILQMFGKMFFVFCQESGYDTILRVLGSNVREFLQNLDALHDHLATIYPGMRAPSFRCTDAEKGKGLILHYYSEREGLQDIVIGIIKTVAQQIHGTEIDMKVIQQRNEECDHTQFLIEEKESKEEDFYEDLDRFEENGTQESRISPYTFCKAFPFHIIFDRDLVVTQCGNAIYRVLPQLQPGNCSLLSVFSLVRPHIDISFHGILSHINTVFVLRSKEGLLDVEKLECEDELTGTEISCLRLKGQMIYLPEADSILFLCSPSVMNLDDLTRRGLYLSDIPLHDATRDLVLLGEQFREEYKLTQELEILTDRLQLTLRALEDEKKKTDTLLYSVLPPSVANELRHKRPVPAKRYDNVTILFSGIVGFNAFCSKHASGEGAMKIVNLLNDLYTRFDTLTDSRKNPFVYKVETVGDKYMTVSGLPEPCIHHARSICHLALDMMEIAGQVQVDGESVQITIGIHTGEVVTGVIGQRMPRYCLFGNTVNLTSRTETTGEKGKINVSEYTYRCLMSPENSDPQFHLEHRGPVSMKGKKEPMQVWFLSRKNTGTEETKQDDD
T1 sequence (Q02108 1-690 partner): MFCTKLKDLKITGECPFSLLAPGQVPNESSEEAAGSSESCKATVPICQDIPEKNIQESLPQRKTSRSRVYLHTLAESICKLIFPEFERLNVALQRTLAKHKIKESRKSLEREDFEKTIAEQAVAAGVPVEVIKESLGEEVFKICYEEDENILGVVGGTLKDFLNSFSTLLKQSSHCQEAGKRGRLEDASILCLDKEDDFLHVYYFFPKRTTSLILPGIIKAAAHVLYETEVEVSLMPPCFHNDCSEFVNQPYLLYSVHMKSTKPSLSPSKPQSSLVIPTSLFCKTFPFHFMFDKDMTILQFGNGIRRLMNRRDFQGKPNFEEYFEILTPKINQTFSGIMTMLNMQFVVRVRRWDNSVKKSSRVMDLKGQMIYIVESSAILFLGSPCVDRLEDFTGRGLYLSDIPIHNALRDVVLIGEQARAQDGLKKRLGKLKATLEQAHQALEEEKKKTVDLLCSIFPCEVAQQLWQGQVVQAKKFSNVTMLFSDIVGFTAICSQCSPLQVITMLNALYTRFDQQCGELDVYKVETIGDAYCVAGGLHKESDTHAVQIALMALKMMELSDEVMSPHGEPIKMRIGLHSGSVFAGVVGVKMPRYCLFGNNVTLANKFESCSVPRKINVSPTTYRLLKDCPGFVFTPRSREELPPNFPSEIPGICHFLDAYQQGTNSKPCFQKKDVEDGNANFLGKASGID
Protocol: Chinese Hamster ovary cells (CHO-K1 cells) modified for stably expressing human sGC α subunit and β subunit, and a mouse cyclic nucleotide gated channel (CNGA2) were used in the test.
The CHO-K1 cells stably expressing human sGC and mouse CNGA2 were cultured at 37° C. in a F-12 medium supplemented with 10% (v/v) fetal bovine serum (FBS), penicillin (100 U/mL), streptomycin (100 μg/mL), G418 (250 μg/mL), and Zeocin (250 μg/mL). The cells were suspended in a culture medium, seeded in a 96 well plate, and cultured at 37° C. for 24 hours. The cells were washed with an assay buffer 1 (140 mmol/L of sodium chloride, 5 mmol/L of potassium chloride, 0.5 mmol/L of magnesium chloride, 0.01 mmol/L of calcium chloride, 10 mmol/L of glucose, 0.4 mmol/L of magnesium sulfate, 10 mmol/L of 4-(2-hydroxyethyl)piperazine-1-yl ethanesulfonic acid, 125 μmol/L of sulfinpyrazone, pH 7.4), and then an indicator solution in which Fura2-AM as a fluorescent Ca2+ indicator is dissolved in assay buffer 1 at a concentration of 5 μmol/L was added thereto, and cultured at 37° C. for 60 minutes. The culture medium was removed, the cells were washed with assay buffer 1, the test compound solution was added thereto, and cultured at room temperature for 10 minutes. The plate was mounted on a fluorescence microplate reader (FlexStation II, available from Molecular Devices) with setting of excitation wavelengths of 340 and 380 nm and a detection wavelength of 510 nm, an intracellular calcium concentration was measured as a fluorescent intensity ratio obtained from each excitation wavelength.
In this test, the solution of the test compound was prepared by dissolving each test compound in DMSO at a concentration of 10 mmol/L, and then diluting the solution with assay buffer 2 (140 mmol/L of sodium chloride, 5 mmol/L of potassium chloride, 0.5 mmol/L of magnesium chloride, 1 mmol/L of calcium chloride, 10 mmol/L of glucose, 0.4 mmol/L of magnesium sulfate, 10 mmol/L of 4-(2-hydroxyethyl)piperazine-1-yl ethanesulfonic acid, 125 μmol/L of sulfinpyrazone, 100 μmol/L of isobutylmethylxanthine, 10 μmol/L of 1H-[1,2,4]-oxadiazole [4,3-a]quinoxaline-1-on (hereinafter, referred to as ODQ), pH 7.4), in order to adjust the concentration of 10 μmol/L for testing. As a control solution, a DMSO diluted solution was used, instead of the test compound solution.
The activity of the test compound was calculated as an increase rate (%) of the sGC activity in the test compound solution relative to the sGC activity in the control solution, by dividing a fluorescent intensity ratio in adding the test compound by a fluorescent intensity ratio of the control solution, and subtracting the sGC activity in the control solution (100%) therefrom. An EC50 value was calculated from the activity of the test compound at concentrations of 0.0001, 0.001, 0.003, 0.01, 0.03, 0.1, 1, and 10 μmol/L, using a 4 parameter losgistic model from Assay Explorer (available from Dssault Systèmes BIOVIA).

[3] = Determination of Log D value (flask shaking method); format: physicochemical; conditions: pH 6.8; partition between n-octanol and second solution for the disintegration test (16th revised Japanese Pharmacopoeia), room temperature
Protocol: More specifically, the Log D is more preferably 1.6 or more and 2.3 or less, still more preferably 1.8 or more and 2.2 or less, and particularly preferably 1.8 or more and 2.1 or less. Here, the Log D value in the present invention is a compound partition coefficient between n-octanol and a second solution of a disintegration test of the 16th revised Japanese Pharmacopoeia.
The Log D value was determined using a flask shaking method, where a test compound partition coefficient between n-octanol and the second solution for the disintegration test defined in the 16th revised Japanese Pharmacopoeia was calculated. Specifically, in a microtube containing 2 mg of the test compound, n-octanol (0.25 mL) and the second solution for the disintegration test (0.25 mL) were mixed. The tube was shaken in a multi shaker at room temperature for 60 minutes, and allowed to stand until the two phases were completely separated. In the microtube, 10 μL of an n-octanol phase was diluted with 190 μL of 85% methanol and mixed, thereby obtaining an organic phase test solution. 100 μL of the second solution phase for the disintegration test was diluted with 100 μL of 50% methanol, and mixed, thereby obtaining an aqueous phase test solution. The organic phase test solution and the aqueous phase test solution were filtered, respectively, and the concentration of the test compound in these test solutions were measured, using high performance liquid chromatography. Then, from the measured concentration and dilution rate, the Log D was calculated.
That is, the Log D of the present specification is represented by the following equation: Log D=Log10([concentration of test compound in organic phase test solution]/[concentration of test compound in aqueous phase test solution])+1 [Equation 1]
The second solution for the disintegration test herein refers to, as defined in the 16th revised Japanese Pharmacopoeia, a liquid obtained by adding to 250 mL of a 0.2 mol/L potassium dihydrogenphosphate reagent, 118 mL of a 0.2 mol/L sodium hydroxide reagent, and water for adjusting to 1000 mL volume.

SMILES | intraocular pressure lowering action [1] | EC50 [2] [nM] | logD [3]
O=C(O)CCCCN(CCc1ccccc1OCc1ccc(CCc2ccccc2)cc1)Cc1ccc(C(=O)O)cc1 [Cinaciguat] | low intraocular pressure lowering action |  | 
O=C(O)CCCCN(CCc1ccccc1OC[C@H]1CCc2ccccc2C1)C1CCCc2cc(C(=O)O)ccc21 (stereo partly drawn) [Compound No. 17, 5-[N-(4-carboxybutyl)-N-[2-[2-((2S)-1,2,3,4-tetrahydronaphthalene-2-ylmethoxy)phenyl]ethyl]amino]-5,6,7,8-tetrahydronaphthalene-2-carboxylic acid] |  | 11 | 2
CC(C)(C)c1ccccc1COc1ccccc1CCN(CCCCC(=O)O)C1CCCc2cc(C(=O)O)ccc21 (stereo not shown) [Compound No. 15, 5-[N-[2-[2-(2-tert-butylbenzyloxy)phenyl]ethyl]-N-(4-carboxybutyl)amino]-5,6,7,8-tetrahydronaphthalene-2-carboxylic acid] |  | 13.4 | 1.95
O=C(O)CCCCN(Cc1ccc(C(=O)O)cc1)C[C@H](OCc1ccc(Oc2ccccc2)cc1)c1cccc(Cl)c1 [Compound No. 23, (−)-4-([N-(4-carboxybutyl)-N-[(2R)-2-(3-chlorophenyl)-2-[4-(phenyloxy)benzyloxy]ethyl]amino]methyl)benzoic acid] |  | 2.47 | 2.35
O=C(O)CCCCN(Cc1ccc(C(=O)O)cc1)C[C@H](OCc1ccc(CCc2ccccc2)cc1F)c1ccccc1 [Compound No. 3, (−)-4-([N-(4-carboxybutyl)-N-[(2R)-2-[2 fluoro-4-(2-phenylethyl)benzyloxy]-2-phenylethyl]amino]methyl)benzoic acid] |  | 2.35 | 1.99
O=C(O)CCCCN(CCc1ccccc1OCc1ccc2c(c1)CCCC2)C1CCCc2cc(C(=O)O)ccc21 (stereo not shown) [Compound No. 20, 5-[N-(4-carboxybutyl)-N-[2-[2-(1,2,3,4-tetrahydronaphthalene-6-ylmethoxy)phenyl]ethyl]amino]-5,6,7,8-tetrahydronaphthalene-2-carboxylic acid] |  | 3.96 | 1.87
O=C(O)CCCCN(CCc1ccccc1OCc1ccc2c(c1)CCCC2)C1CCOc2cc(C(=O)O)ccc21 (stereo not shown) [Compound No. 18, 4-[N-(4-carboxybutyl)-N-[2-[2-(1,2,3,4-tetrahydronaphthalene-6-ylmethoxy)phenyl]ethyl]amino]-chromane-7-carboxylic acid] |  | 2.9 | 2.14
O=C(O)CCCCN(Cc1ccc(C(=O)O)cc1)C[C@H](OCc1ccc(CCc2ccccc2)s1)c1ccccc1 [Compound No. 4, (−)-4-[(N-(4-carboxybutyl)-N-[(2R)-2-[5-(2-phenylethyl)thiophene-2-ylmethoxy]-2-phenylethyl]amino)methyl]benzoic acid] |  | 1.61 | 1.8
O=C(O)CCCCN(Cc1ccc(C(=O)O)cc1)C[C@H](OCc1ccc(Oc2ccc(Cl)cc2)cc1)c1ccccc1 [Compound No. 5, (−)-4-([N-(4-carboxybutyl)-N-[(2R)-2-[4-(4-chlorophenyloxy)benzyloxy]-2-phenylethyl]amino]methyl)benzoic acid] |  | 6.49 | 2.17
CC(C)c1ccc(COc2ccccc2CCN(CCCCC(=O)O)[C@H]2CCCc3cc(C(=O)O)ccc32)cc1 [Compound No. 10, (+)-(5S)—[N-(4-carboxybutyl)-N-[2-[2-(4-isopropylbenzyloxy)phenyl]ethyl]amino]-5,6,7,8-tetrahydronaphthalene-2-carboxylic acid] |  | 9.63 | 1.88
